Results reported in patent US20240390471A1, “COMPOUNDS AND ADJUVANT FORMULATIONS USEFUL IN PNEUMOCOCCAL VACCINES” (Merck Sharp & Dohme LLC, priority 2023, published 2024).

Columns and labels:
[1] = biological target: T1, human TLR7 (Homo sapiens, UniProt Q9NYK1); test: Cell-based TLR 7/8 assay, HEK-Blue TLR7 cells (SEAP reporter); details: based on Compound concentration only; Compounds formulated as SNEs; read-out: huTLR7 EC50 (converted)
T1 construct: host or cells: HEK-Blue 293 cells expressing human TLR7
T1 sequence (Q9NYK1 27-1049): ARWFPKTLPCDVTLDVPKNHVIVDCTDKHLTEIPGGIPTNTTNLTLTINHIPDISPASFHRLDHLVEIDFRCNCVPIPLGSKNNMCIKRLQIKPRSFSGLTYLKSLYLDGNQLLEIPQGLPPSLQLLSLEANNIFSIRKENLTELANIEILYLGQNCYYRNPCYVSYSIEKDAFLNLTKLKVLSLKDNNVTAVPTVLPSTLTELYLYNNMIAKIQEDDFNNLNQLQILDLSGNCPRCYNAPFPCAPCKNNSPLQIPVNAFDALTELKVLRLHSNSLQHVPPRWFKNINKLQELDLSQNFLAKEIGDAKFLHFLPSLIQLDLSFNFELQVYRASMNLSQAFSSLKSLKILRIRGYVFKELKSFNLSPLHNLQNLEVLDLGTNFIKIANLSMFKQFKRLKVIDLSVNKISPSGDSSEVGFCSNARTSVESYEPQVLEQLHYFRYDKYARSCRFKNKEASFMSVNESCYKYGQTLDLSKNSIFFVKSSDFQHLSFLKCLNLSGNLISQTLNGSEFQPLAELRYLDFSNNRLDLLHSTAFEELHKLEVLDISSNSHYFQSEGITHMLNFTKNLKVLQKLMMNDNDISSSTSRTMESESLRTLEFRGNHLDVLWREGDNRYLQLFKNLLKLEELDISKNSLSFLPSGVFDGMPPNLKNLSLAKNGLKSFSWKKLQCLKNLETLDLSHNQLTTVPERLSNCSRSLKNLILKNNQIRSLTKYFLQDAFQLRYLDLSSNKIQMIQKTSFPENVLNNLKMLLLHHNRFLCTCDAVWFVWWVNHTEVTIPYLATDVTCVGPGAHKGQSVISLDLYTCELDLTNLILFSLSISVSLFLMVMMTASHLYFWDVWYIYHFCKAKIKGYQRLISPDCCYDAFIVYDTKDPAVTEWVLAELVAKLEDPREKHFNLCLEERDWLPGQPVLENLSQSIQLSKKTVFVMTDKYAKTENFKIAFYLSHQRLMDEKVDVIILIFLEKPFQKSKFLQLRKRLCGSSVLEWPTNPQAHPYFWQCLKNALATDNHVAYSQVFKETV
Procedure: (§1) HEK-Blue™ TLR7 and TLR8 cells (InvivoGen) were designed to assess the stimulation of TLR7 and TLR8 by monitoring the activation of NF-κB and AP-1. Compound B-1-SNE samples were diluted 1:2 across an 8-point titration in diluent buffer histidine/PS-20 in a sterile V-bottom plate. 20 μL of samples were transferred to corresponding wells of two flat bottom assay plates. Media was aspirated from HEK-Blue™ human TLR 7 and TLR 8 cells (T-75 flasks) and gently rinsed with pre-warmed (37° C.) DPBS for a total volume of 5 mL/flask. The DPBS was gently removed from the cells and cells were gently manually dislodged and resuspended in 2 mL of DPBS. Cell assay suspensions were then prepared at approximately 2.2×10^5 cells per mL of HEK-Blue™ detection medium (InvivoGen). 180 μL of cell suspension in detection medium was added to each well of the two flat bottom assay plates containing the diluted Compound B-1-SNE samples for a final dilution of sample equaling 1:10 (180 μL of cell suspension in detection medium and 20 μL of sample). The cells were then incubated at 37° C. in 5% CO2 for 20 hrs. The reporter gene, NF-Kb, induces the production of secreted embryonic alkaline phosphatase (SEAP) when stimulated and can be monitored using the vendor supplied SEAP detection kit. SEAP colorimetric changes were read at an absorbance of 640 nm using a SpectroMax Stakmax plate reader. […] EC50 values were calculated based on total Compound B-1-SNE concentration using GraphPad Prism Software and analyzed using agonist vs. response variable slope (four parameters) least squares fit.
(§2) Further to the description in Example 10, a cell-based activation system was used to assess activity of the Compound-formulated nanoemulsion systems, prepared as described in examples, supra. HEK-Blue™ TLR7 and TLR8 cells (InvivoGen) were designed to assess the stimulation of TLR7 and TLR8 by monitoring the activation of NF-κB and AP-1. Compound-SNE samples were diluted 1:2 across an 8-point titration in diluent buffer histidine/PS-20 in a sterile V-bottom plate. 20 μL of samples were transferred to corresponding wells of two flat bottom assay plates. Media was aspirated from HEK-Blue™ human TLR 7 and TLR 8 cells (T-75 flasks) and gently rinsed with pre-warmed (37° C.) DPBS for a total volume of 5 mL/flask. The DPBS was gently removed from the cells and cells were gently manually dislodged and resuspended in 2 mL of DPBS. Cell assay suspensions were then prepared at approximately 2.2×10^5 cells per mL of HEK-Blue™ detection medium (InvivoGen). 180 μL of cell suspension in detection medium was added to each well of the two flat bottom assay plates containing the diluted Compound-SNE samples for a final dilution of sample equaling 1:10 (180 μL of cell suspension in detection medium and 20 μL of sample). The cells were then incubated at 37° C. in 5% CO2 for 20 hrs. The reporter gene, NF-Kb, induces the production of secreted embryonic alkaline phosphatase (SLAP) when stimulated and can be monitored using the vendor supplied SLAP detection kit. SLAP colorimetric changes were read at an absorbance of 640 nm using a SpectroMax Stakmax plate reader. EC50s were calculated based on Compound concentration only, not total Compound-SNE concentration (Table 6) using GraphPad Prism Software and analyzed using agonist vs. response variable slope (four parameters) least squares fit.

[2] = biological target: T2, human TLR8 (Homo sapiens, UniProt Q9NR97); test: Cell-based TLR 7/8 assay, HEK-Blue TLR8 cells (SEAP reporter); details: based on Compound concentration only; Compounds formulated as SNEs; read-out: huTLR8 EC50 (converted)
T2 construct: host or cells: HEK-Blue 293 cells expressing human TLR8
T2 sequence (Q9NR97 27-1041): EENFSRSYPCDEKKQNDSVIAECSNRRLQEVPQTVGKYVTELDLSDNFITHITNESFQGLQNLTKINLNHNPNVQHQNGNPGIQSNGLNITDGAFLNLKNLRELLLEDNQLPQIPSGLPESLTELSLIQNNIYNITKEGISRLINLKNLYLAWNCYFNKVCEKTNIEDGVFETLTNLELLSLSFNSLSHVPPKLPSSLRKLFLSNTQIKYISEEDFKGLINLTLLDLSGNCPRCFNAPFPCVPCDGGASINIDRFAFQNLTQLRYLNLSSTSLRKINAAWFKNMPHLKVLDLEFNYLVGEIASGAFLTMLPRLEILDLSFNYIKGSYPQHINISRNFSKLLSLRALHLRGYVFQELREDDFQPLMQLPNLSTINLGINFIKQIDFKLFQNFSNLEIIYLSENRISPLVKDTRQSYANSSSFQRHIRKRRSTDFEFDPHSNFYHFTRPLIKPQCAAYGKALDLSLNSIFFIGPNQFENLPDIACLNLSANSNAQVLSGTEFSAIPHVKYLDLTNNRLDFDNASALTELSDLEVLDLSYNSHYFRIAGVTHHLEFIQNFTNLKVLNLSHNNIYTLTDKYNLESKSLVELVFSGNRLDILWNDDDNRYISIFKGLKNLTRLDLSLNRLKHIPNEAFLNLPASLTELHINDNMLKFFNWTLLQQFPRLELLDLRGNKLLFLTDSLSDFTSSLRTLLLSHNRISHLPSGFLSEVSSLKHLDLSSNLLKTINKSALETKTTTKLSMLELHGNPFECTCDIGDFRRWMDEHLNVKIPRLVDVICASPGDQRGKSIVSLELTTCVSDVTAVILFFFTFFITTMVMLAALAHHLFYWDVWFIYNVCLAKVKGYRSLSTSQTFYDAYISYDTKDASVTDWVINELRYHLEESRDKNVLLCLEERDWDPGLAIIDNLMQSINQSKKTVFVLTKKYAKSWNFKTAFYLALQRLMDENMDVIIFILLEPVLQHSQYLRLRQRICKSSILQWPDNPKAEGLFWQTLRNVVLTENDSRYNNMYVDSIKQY
Procedure: as §1, §2

| Compound | EC50 [1] | EC50 [2] |
| --- | --- | --- |
| CCCCCCCCCCCCCCCCCC(=O)NCCCNC(=O)N1CCN(c2ccc(Cn3cc4nc(N)nc(NCCCC)c4n3)c(OC)c2)CC1 [Compound D-2, 4-(4-((5-amino-7-(butylamino)-2H-pyrazolo[4,3-d]pyrimidin-2-yl)methyl)-3-methoxyphenyl)-N-(3-stearamidopropyl)piperazine-1-carboxamide] | 17.7 µM | 5.82 µM |
| CCCCCCCCCCCCCCCCCC(=O)NC1CC(CC(=O)N2CCN(c3ccc(Cn4cc5nc(N)nc(NCCCC)c5n4)c(OC)c3)CC2)C1 (stereo not shown) [Compound B-13, N-(3-(2-(4-(4-((5-amino-7-(butylamino)-2H-pyrazolo[4,3-d]pyrimidin-2-yl)methyl)-3-methoxyphenyl)piperazin-1-yl)-2-oxoethyl)cyclobutyl)stearamide] | 85.9 µM | 3.02 µM |
| CCCCCCCCCCCCCCCCCC(=O)NCCCCC(=O)N1CCN(c2ccc(Cn3nc4c(NCCCC)nc(N)nc4c3C)c(OC)c2)CC1 [Compound B-18, N-(5-(4-(4-((5-amino-7-(butylamino)-3-methyl-2H-pyrazolo[4,3-d]pyrimidin-2-yl)methyl)-3-methoxyphenyl)piperazin-1-yl)-5-oxopentyl)stearamide] | 0.316 µM | 0.215 µM |
| CCCCCCCCCCCCCCCCCC(=O)NCCCNC(=O)C1CCN(c2ccc(Cn3cc4nc(N)nc(NCCCC)c4n3)c(OC)c2)CC1 [Compound B-8, 1-(4-((5-amino-7-(butylamino)-2H-pyrazolo[4,3-d]pyrimidin-2-yl)methyl)-3-methoxyphenyl)-N-(3-stearamidopropyl)piperidine-4-carboxamide] | 64.7 µM | 54 µM |
| CCCCCCCCCCCCCCCCNC(=O)[C@H]1C[C@@H](CC(=O)N2CCN(c3ccc(Cn4cc5nc(N)nc(NCCCC)c5n4)c(OC)c3)CC2)C1 [Compound B-10, (1s,3s)-3-(2-(4-(4-((5-amino-7-(butylamino)-2H-pyrazolo[4,3-d]pyrimidin-2-yl)methyl)-3-methoxyphenyl)piperazin-1-yl)-2-oxoethyl)-N-hexadecylcyclobutane-1-carboxamide] | 117 µM | 73.6 µM |
| CCCCCCCCCCCCCCCCCC(=O)NCCCCC(=O)N1CCCN(c2ccc(Cn3cc4nc(N)nc(NCCCC)c4n3)c(OC)c2)CC1 [Compound B-5, N-(5-(4-(4-((5-amino-7-(butylamino)-2H-pyrazolo[4,3-d]pyrimidin-2-yl)methyl)-3-methoxyphenyl)-1,4-diazepan-1-yl)-5-oxopentyl)stearamide] | 13.4 µM | 4.21 µM |

Results, then the compound that gave them:

| EC50 [1] | EC50 [2] | Compound |
| --- | --- | --- |
| 8.43 µM | 3.39 µM | CCCCCCCCCCCCCCCCCC(=O)NCCCCC(=O)N1CC(c2ccc(Cn3cc4nc(N)nc(NCCCC)c4n3)c(OC)c2)C1 [Compound B-7, N-(5-(3-(4-((5-amino-7-(butylamino)-2H-pyrazolo[4,3-d]pyrimidin-2-yl)methyl)-3-methoxyphenyl)azetidin-1-yl)-5-oxopentyl)stearamide] |
| 135 µM | 11.9 µM | CCCCCCCCCCCCCCCCCC(=O)NCCCC(C)(C)C(=O)N1CCN(c2ccc(Cn3cc4nc(N)nc(NCCCC)c4n3)c(OC)c2)CC1 [Compound B-14, N-(5-(4-(4-((5-amino-7-(butylamino)-2H-pyrazolo[4,3-d]pyrimidin-2-yl)methyl)-3-methoxyphenyl)piperazin-1-yl)-4,4-dimethyl-5-oxopentyl)stearamide] |
| 0.837 µM | 0.554 µM | CCCCCCCCCCCCCCCCCC(=O)NCCCCC(=O)N1CCN(c2ccc(Cn3cc4nc(N)nc(NCCCC)c4n3)c(OC)c2)CC1 [Compound B-1, N-(5-(4-(4-((5-amino-7-(butylamino)-2H-pyrazolo[4,3-d]pyrimidin-2-yl)methyl)-3-methoxyphenyl)piperazin-1-yl)-5-oxopentyl)stearamide] |
| 17.2 µM | 155 µM | CCCCC/C=C\C/C=C\CCCCCCCCC(CCCCCCCC/C=C\C/C=C\CCCCC)OC(=O)NCCCCN(C)Cc1cc(OC)c(Cn2cc3nc(N)nc(NCCCC)c3n2)c(OC)c1 [Compound D-1, (6Z,9Z,28Z,31Z)-heptatriaconta-6,9,28,31-tetraen-19-yl (4-((4-((5-amino-7-(butylamino)-2H-pyrazolo[4,3-d]pyrimidin-2-yl)methyl)-3,5-dimethoxybenzyl)(methyl)amino)butyl)carbamate] |
| 0.338 µM | 0.176 µM | CCCCCCCCCCCCCC(=O)NCCCCN(C)Cc1cc(OC)c(Cn2cc3nc(N)nc(NCCCC)c3n2)c(OC)c1 [Compound C-2, N-(4-((4-((5-amino-7-(butylamino)-2H-pyrazolo[4,3-d]pyrimidin-2-yl)methyl)-3,5-dimethoxybenzyl)(methyl)amino)butyl)tetradecanamide] |
